# Data reported in US7320890B2, “Soluble steroidal peptides for nucleic acid delivery” (University of Utah Research Foundation, priority 2001, dated 2008).
# Where a SMILES comes first, the peptide text is derived from it. Where no end group is shown, it is not given here. The star is where a group is joined. Lithocholoyl = C[C@H](CCC(=O)*)[C@H]1CC[C@H]2[C@@H]3CC[C@@H]4C[C@H](O)CC[C@]4(C)[C@H]3CC[C@]12C
# What was measured:
# [1] = test system: CT-26 cells; assay: Membrane permeabilization study (ethidium bromide staining, flow cytometry); assay type: cell-based; conditions: for levels of staining: pH 7.4; for cells stained (ethidium bromide fluorescence): 10 μM SSP
# Description: Membrane permeabilization studies were performed to find out whether SSP was able to form pores through plasma membranes and whether this phenomenon had any pH dependence or not. SSP prepared according to Example 1 was used at micromolar concentrations on cells preincubated with ethidium bromide, which intercalates between the strands of dsDNA and causes it to fluoresce. Ethidium bromide on its own is a poor membrane permeant, however, if the membranes are permeabilized, it would rapidly cross the cytoplasm, accumulate in the nucleus, and bind to the cellular DNA. Its fluorescent property would allow us to thus find the extent to which permeabilization via SSP occurred.
# The membrane permeabilization activity of SSP was determined using flow cytometry. CT-26 cells were grown overnight and at 70-80% confluency were trypsinized and centrifuged. Cells were washed several times in 1×PBS (pH 7.4) and eventually resuspended in it to make cell suspensions of 1×10^6 cells/ml. One microliter of ethidium bromide (10 mg/ml) was mixed in 0.5 ml of cell suspension aliquots and stored at 4° C. 15 minutes before use. The pH of cell suspensions was adjusted to values 5,6,7, or 8 using either 1N NaOH or 1N HCl solutions 5 minutes before starting the experiment. SSP was finally used to permeabilize the membranes at the same final concentration for pH studies or at different concentrations at pH 7.4. Temperature effects at 4° C. and 37° C. were also studied to find any temperature dependent differences in permeabilization. After 5 and 15 minutes incubation, the cell fluorescence intensity was measured using FACScan Analyzer (Becton Dickinson, Sunnyvale, Calif.), which has a single 15-mW argon (488 nm) laser light source. A 585 nm long pass filter was used to collect the emitted red fluorescence. The forward scatter, side scatter, and ethidium bromide fluorescence were simultaneously recorded with 10,000 cells at 300 events per second. The results were later analyzed using cell quest software provided by the same manufacturer. Histogram statistics were used to quantitatively determine the extent of permeabilization.
# [2] = test system: plasmid DNA; assay: Condensation of plasmid DNA (gel electrophoresis); assay type: physicochemical; conditions: 4.5% (w/v) glucose, phosphate buffer pH 8.0
# Description: Various formulations of SSP/p2CMVmIL-12 were prepared as follows: 100 μL aliquots of SSP at various concentrations and pDNA (0.2 mg/ml) were prepared in 4.5% (w/v) glucose to bring the osmolality to 285-295 mOsm, and 1M phosphate buffer was used to bring the pH to 8.0 of both aliquots. SSP/pDNA complexes at various N/P ratios ranging from 0.5/1 (N/P) to 50/1 (N/P) were prepared by rapidly mixing contents of SSP aliquot in pDNA aliquots using a pipettor. N/P ratio was calculated by taking into account 3 nitrogens for each arginine in SSP, thereby resulting in 18 nitrogens for each SSP molecule. The SSP/pDNA complexes were incubated for 15 minutes at room temperature before electrophoresis.
# [3] = test system: CT-26 colon carcinoma cell lines; assay: In vitro transfection, luciferase activity; assay type: cell-based; conditions: CT-26 cells, controls without carrier conjugate or without plasmid
# Description: SSP/pLuc and SSP/p2CMVmIL-12 complexes formulated at various N/P ratios in 5% (w/v) glucose were evaluated for their transfection efficiency in CT-26 colon carcinoma cell lines. In the case of luciferase gene controls, cells were lysed after transfection and the relative light units (RLU) and total protein concentration were determined. […] The transfection efficiency increased with the increase in N/P ratios but diminished slightly with ratios 50/1 and above which could possibly be due to cytotoxicity towards CT-26 cells. On visual inspection under light microscope some granulation of cells was found, and cytotoxicity tests indicate that above N/P ratios 50/1 the cell viability is reduced by about 80%, which would account for lower gene expression.
# In case of pLuc, CT-26 cells were seeded in 12-well tissue culture plates at 1×10^5 cells per/well in 10% FBS containing RPMI 1640 media. Cells achieved 70% confluency within 24 hours, after which they were transfected with SSP/pDNA complexes prepared at different N/P ratios ranging from 5/1 to 50/1 as described above. […] Luciferase activity was measured in terms of relative light units (RLU) using 96 well plate Luminometer (Dynex Technologies Inc, Chantilly, Va.). The luciferase activity was monitored and integrated over a period of 30 secs. […]
# [4] = mouse, CT-26 colon adeno-carcinoma cells
# Description: (§1) Cytotoxicity of SSP/p2CMVmIL-12 complexes prepared at different N/P ratios were assessed using an MTT assay. CT-26 colon adeno-carcinoma cells were grown and maintained in RPMI 1640 medium (GIBCO-BRL, Gaithersburg, Md.), which was supplemented with 10% fetal bovine serum (FBS), 100 U/ml penicillin, 100 U/ml streptomycin and 50 μg/ml gentamycin (all from Gibco-BRL, Gaithersburg, Md.) at 37° C. and humidified 5% CO2.
# (§2) Briefly, CT-26 cell lines were seeded in 96 well plates at 4000 cells/well and incubated for 24 hours. After checking the cell confluency, which was over 80%, SSP/p2CMVmIL-12 complexes prepared at N/P ratios ranging from 5/1 to 100/1 were added to the cells at a dose of 0.15 μg pmIL-12/well. Following 48 hrs of incubation, 25 μl of 5 mg/ml 3-[4,5-dimethylthiazol-2-yl]-2,5-diphenyltetrazolium bromide (MTT, Sigma Chemical Co., St. Louis, Mo.) stock solution in phosphate buffered saline (PBS, Gibco-BRL) was poured into each well reaching a final concentration of 0.5 mg/ml MTT. The plate was then incubated at 37° C. in 5% CO2 for 4 hrs. The medium was removed and 150 μl of dimethyl sulfoxide (DMSO, Aldrich) was added to dissolve the formazan crystals. The plate was read spectrophotometrically at 570 nm in an ELISA plate reader. The relative cell viability was calculated as [Abs]sample/[Abs]control×100. […]
# [5] = test system: CT-26 colon adeno-carcinoma cells; assay: Cytotoxicity MTT assay; conditions: SSP alone, amounts equivalent to those used in N/P ratios 20/1
# Description: as §1, §2
Molecule,levels of staining ([1]; 5 μM of SSP or above),levels of staining ([1]; 10 μM SSP and above),"cells stained (ethidium bromide fluorescence) ([1]; pH 5 and 6, within 5 minutes)","cells stained (ethidium bromide fluorescence) ([1]; pH 5 and 6, within 5 minutes, listed as soluble steroidal peptide)","cells stained (ethidium bromide fluorescence) ([1]; pHs above the pKa of the imidazole ring of histidine (pKa=6.1), pH 7 and 8)",N/P ratio at which pDNA is condensed completely [2],transfection / gene expression (in words) [3],viability at 48 h [4],cytotoxicity (in words) [5]
CC(C)C[C@H](NC(=O)[C@H](CCCNC(=N)N)NC(=O)[C@H](CCCNC(=N)N)NC(=O)[C@H](CCCNC(=N)N)NC(=O)[C@H](CO)NC(=O)[C@H](CCCCNC(=O)CC[C@@H](C)[C@H]1CC[C@H]2[C@@H]3CC[C@@H]4C[C@H](O)CC[C@]4(C)[C@H]3CC[C@]12C)NC(=O)[C@H](Cc1c[nH]cn1)NC(=O)[C@H](CCCNC(=N)N)NC(=O)[C@H](CCCNC(=N)N)NC(=O)[C@H](CCCNC(=N)N)NC(=O)[C@H](Cc1ccc(O)cc1)NC(=O)[C@H](Cc1c[nH]cn1)NC(=O)[C@@H](N)Cc1c[nH]cn1)C(=O)N[C@@H](Cc1c[nH]cn1)C(=O)N[C@@H](Cc1c[nH]cn1)C(N)=O [SSP] (H-HHYRRRHK(Lithocholoyl)SRRRLHH-NH2; N-terminus and C-terminus assumed),> 85%,~100%,over 97%,less than 25%,< 25%,3/1,did not give any gene expression,~75%,non-toxic
"HHYRRRHKSRRRLHH [Peptide sequence, reference compound]",–,–,–,–,–,–,not effective,–,–
